Measured values as given in the supplement of paper PMC10307832.

Key:
Assay in all cases: relative viability (nuclei count vs DMSO), 5 days (fraction); higher = more cells survive
[1] = compound: CC1=CN2C(=O)C=C(N=C2C(=C1)C(C)NC3=CC=CC=C3)N4CCOCC4 [TGX 221] + NC(=O)Nc1cc(-c2cccc(F)c2)sc1C(=O)N[C@H]1CCCNC1 [AZD7762] (partner 0.2 µM)
How it was run: (§1)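 For relative viability, nuclei counts in treated wells were divided by those in vehicle wells. Lung cancer cell lines had been pin-tool dosed in 1536-well plates the day after seeding and cultured for 5 days, then fixed and stained in one step (final 0.05% Triton X-100, 1% formaldehyde, 1 ug/ml Hoechst) and imaged at 4×. Doses were one drug alone or a fixed anchor-drug dose plus five library-drug doses (not always all listed) in √10 steps, and values are duplicate-plate medians.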

[2] = compound: C1=CC=C(C(=C1)C2=CC=C(C=C2)C3=CSC4=C3C(=C(C(=O)N4)C#N)O)O + CCNC(=O)c1noc(-c2cc(C(C)C)c(O)cc2O)c1-c1ccc(CN2CCOCC2)cc1 [Luminespib] (partner 0.01 µM)
How it was run: as §1

[3] = compound: CC1=CN2C(=O)C=C(N=C2C(=C1)C(C)NC3=CC=CC=C3)N4CCOCC4 [TGX 221] + Cc1cc(Nc2cc(N3CCN(C)CC3)nc(Sc3ccc(NC(=O)C4CC4)cc3)n2)n[nH]1 [Tozasertib] (partner 0.1 µM)
How it was run: as §1

[4] = compound: CC1=CN2C(=O)C=C(N=C2C(=C1)C(C)NC3=CC=CC=C3)N4CCOCC4 [TGX 221] + N=C(N)NC(=N)NCCc1ccccc1 [Phenformin] (partner 250 µM)
How it was run: as §1

| Cell Line | relative viability ([1]; first compound 0.08 µM) | relative viability ([1]; first compound 0.253 µM) | relative viability ([1]; first compound 0.8 µM) | relative viability ([1]; first compound 2.53 µM) | relative viability ([1]; first compound 8 µM) | relative viability ([2]; first compound 0.08 µM) | relative viability ([2]; first compound 0.253 µM) | relative viability ([2]; first compound 0.8 µM) | relative viability ([2]; first compound 2.53 µM) | relative viability ([2]; first compound 8 µM) | relative viability ([3]; first compound 0.08 µM) | relative viability ([3]; first compound 0.253 µM) | relative viability ([3]; first compound 0.8 µM) | relative viability ([3]; first compound 2.53 µM) | relative viability ([3]; first compound 8 µM) | relative viability ([4]; first compound 0.08 µM) | relative viability ([4]; first compound 0.253 µM) | relative viability ([4]; first compound 0.8 µM) | relative viability ([4]; first compound 2.53 µM) | relative viability ([4]; first compound 8 µM) |
| --- | --- | --- | --- | --- | --- | --- | --- | --- | --- | --- | --- | --- | --- | --- | --- | --- | --- | --- | --- | --- |
| HARA | 0.464 | 0.38 | 0.513 | 0.519 | 0.274 | 0.375 | 0.707 | 0.553 | 0.592 | 0.682 | 0.147 | 0.105 | 0.123 | 0.1 | 0.0992 | 0.563 | 0.422 | 0.426 | 0.424 | 0.543 |
| A-427 | 0.728 | 0.712 | 0.8 | 0.762 | 0.698 | 0.735 | 1.37 | 0.916 | 1.06 | 0.927 | 0.194 | 0.213 | 0.211 | 0.197 | 0.208 | 0.341 | 0.297 | 0.307 | 0.39 | 0.326 |
| NCI-H2087 | 1.04 | 1.23 | 1.37 | 1.2 | 1.21 | 0.165 | 0.162 | 0.222 | 0.172 | 0.204 | 0.254 | 0.269 | 0.231 | 0.217 | 0.233 | 0.425 | 0.455 | 0.524 | 0.472 | 0.471 |
| NCI-H460 | 0.564 | 0.632 | 0.559 | 0.665 | 0.655 | 0.0357 | 0.0366 | 0.0362 | 0.0279 | 0.036 | 0.383 | 0.489 | 0.639 | 0.0964 | 0.131 | 0.508 | 0.466 | 0.53 | 0.536 | 0.467 |
| PC-14 | 0.316 | 0.329 | 0.34 | 0.33 | 0.289 |  | 0.185 | 0.105 | 0.162 | 0.142 | 0.619 | 0.615 | 0.631 | 0.589 | 0.459 | 0.502 | 0.543 | 0.556 | 0.638 | 0.667 |
| SW 900 |  | 0.598 | 0.515 | 0.444 | 0.469 | 0.161 | 0.174 | 0.186 | 0.135 | 0.192 | 0.657 | 0.749 | 0.824 | 0.636 | 0.453 | 0.572 | 0.455 | 0.473 | 0.448 | 0.525 |
| NCI-H1993 | 0.676 | 0.657 | 0.685 | 0.899 | 0.785 | 0.625 | 0.715 | 0.7 | 0.763 | 0.646 | 0.498 | 0.53 | 0.553 | 0.482 | 0.572 | 0.427 | 0.568 | 0.54 | 0.517 | 0.54 |
| NCI-H1395 | 0.398 | 0.383 | 0.385 | 0.413 | 0.39 | 0.933 | 0.683 | 0.658 | 0.641 | 0.5 | 0.712 | 0.697 | 0.713 | 0.603 | 0.569 | 0.398 | 0.435 | 0.401 | 0.436 | 0.409 |
| BEN | 0.639 | 0.695 | 0.737 | 0.697 | 0.661 | 0.354 | 0.345 | 0.305 | 0.71 | 0.331 | 0.51 | 0.505 | 0.489 | 0.473 | 0.496 | 0.24 | 0.257 | 0.273 | 0.27 | 0.265 |
| RERF-LC-KJ | 0.909 | 0.926 | 0.965 | 0.863 | 0.949 | 1.34 | 1.37 | 1.44 | 1.17 | 0.843 | 0.465 | 0.555 | 0.496 | 0.488 | 0.382 | 0.439 | 0.434 | 0.398 | 0.377 | 0.326 |
| NCI-H522 | 0.771 | 0.81 | 0.888 | 0.871 | 0.904 |  | 1.28 | 1.2 | 1.27 | 0.937 | 0.52 | 0.559 | 0.575 | 0.502 | 0.513 | 0.699 | 0.581 | 0.597 | 0.669 | 0.657 |
| HOP-62 | 0.424 | 0.545 | 0.661 | 0.788 | 0.641 | 0.925 | 0.892 | 0.876 | 1.05 | 0.762 | 0.372 | 0.416 | 0.34 | 0.387 | 0.316 | 0.641 | 0.639 | 0.728 | 0.714 | 0.777 |
| NCI-H596 | 1.05 | 0.904 | 1.11 | 0.942 | 1.03 | 0.696 | 0.941 | 0.943 | 1.15 | 0.904 | 0.94 | 0.944 | 0.91 | 0.864 | 0.61 | 0.726 | 0.753 | 0.852 | 0.678 | 0.874 |
| LOU-NH91 | 0.73 | 0.758 | 0.746 | 0.789 | 0.714 | 0.439 | 0.41 | 0.304 | 0.364 | 0.33 | 0.713 | 0.653 | 0.697 | 0.675 | 0.562 | 0.679 | 0.74 | 0.692 | 0.784 | 0.674 |
| EPLC-272H | 0.24 | 0.222 | 0.161 | 0.171 | 0.197 | 0.279 | 0.282 | 0.247 | 0.223 | 0.282 | 0.187 | 0.275 | 0.282 | 0.186 | 0.138 | 0.298 | 0.275 | 0.291 | 0.269 | 0.27 |
| H3255 | 0.766 | 0.907 | 0.932 | 0.822 | 0.71 | 0.968 | 1.02 | 0.713 | 0.852 | 0.895 | 0.449 | 0.529 | 0.692 | 0.563 | 0.613 | 0.369 | 0.382 | 0.326 | 0.374 | 0.354 |
| NCI-H650 | 0.769 | 0.902 | 0.926 | 1.12 | 0.904 | 0.778 | 0.898 | 0.67 | 0.902 | 0.78 | 0.665 | 0.639 | 0.665 | 0.712 | 0.596 | 0.433 | 0.461 | 0.404 | 0.417 | 0.439 |
| NCI-H1944 |  | 0.501 | 0.453 | 0.513 | 0.455 | 0.839 | 0.736 | 0.752 | 0.777 | 0.724 | 0.237 | 0.223 | 0.241 | 0.244 | 0.2 | 0.188 | 0.196 | 0.191 | 0.186 | 0.184 |
| NCI-H23 | 0.277 | 0.213 | 0.269 | 0.217 | 0.201 |  | 0.19 | 0.212 | 0.197 | 0.211 | 0.461 | 0.393 | 0.386 | 0.322 | 0.241 | 0.814 | 0.699 | 0.811 | 0.836 | 0.773 |
| NCI-H358 | 0.497 | 0.631 | 0.462 | 0.58 | 0.515 | 0.304 | 0.331 | 0.293 | 0.603 | 0.221 | 0.097 | 0.0915 | 0.103 | 0.108 | 0.0944 | 0.355 | 0.31 | 0.296 | 0.382 | 0.324 |
| NCI-H2405 | 0.706 | 0.665 | 0.724 | 0.665 | 0.547 | 0.723 | 0.855 | 0.675 | 0.604 | 0.567 | 0.737 | 0.771 | 0.693 | 0.745 | 0.697 | 0.386 | 0.405 | 0.379 | 0.44 | 0.338 |
| NCI-H441 | 1.22 | 1.12 | 0.925 | 1.07 | 1.24 | 0.344 | 0.352 | 0.269 | 0.308 | 0.344 | 0.605 | 0.569 | 0.737 | 0.611 | 0.695 | 0.791 | 0.911 | 0.79 | 0.785 | 1.09 |
| NCI-H322M | 0.578 | 0.569 | 0.636 | 0.571 | 0.546 | 0.792 | 0.808 | 0.881 | 0.911 | 0.758 | 0.513 | 0.468 | 0.446 | 0.442 | 0.44 | 0.761 | 0.735 | 0.715 | 0.758 | 0.682 |
